From patent US20110112057A1, “Sequential administration of 20,20,21,21,21-pentafluoro-17-hydroxy-11Beta-[4-(hydroxyacetyl)phenyl]-19-nor-17Alpha-pregna-4,9-dien-3-one and one or more progestogens for the treatment of gynaecological disorders” (BAYER SCHERING PHARIMA AKTIENGESELL SCHAFT, priority 2008, published 2011)

Experiments:
[1] = tested on: women of reproductive age; assay: randomised study of sequential treatment cycles with progesterone receptor antagonist followed by a progestogen; assay type: in vivo
Description: Women of reproductive age are treated in a randomised study sequentially in two treatment cycles with 20,20,21,21,21-pentafluoro-17-hydroxy-11β-[4-(hydroxyacetyl)phenyl]-19-nor-17α-pregna-4,9-dien-3-one. For this purpose, 20,20,21,21,21-pentafluoro-17-hydroxy-11β-[4-(hydroxyacetyl)phenyl]-19-nor-17α-pregna-4,9-dien-3-one is administered to the women in each case for 84 days with a daily dose of between about 1 mg and about 50 mg, followed by intake of a progestogen over a period of about 10 to 14 days. This complete treatment cycle is repeated once.

[2] = tested on: endometrium of patients with symptomatic uterine leiomyomata; conditions: after use for 3 months (Williams 2007); cited from earlier work
[3] = tested on: healthy, tube-ligated women; assay: randomised study on the effect of lonaprisan in healthy, tube-ligated women; assay type: in vivo
Description: 36 healthy, tube-ligated women from 24 to 43 years of age were subjects in a randomised study on the effect of lonaprisan. For this purpose, the women were divided into three groups: 7 women received placebo, 14 women 1 mg of lonaprisan and 15 women 10 mg of lonaprisan over a period of 3 months, once a day.

[4] = 1 mg or 10 mg lonaprisan once a day over 3 months, not observed in placebo group

## C[C@]12C[C@H](c3ccc(C(=O)CO)cc3)C3=C4CCC(=O)C=C4CC[C@H]3[C@@H]1CC[C@@]2(O)C(F)(F)C(F)(F)F [20,20,21,21,21-pentafluoro-17-hydroxy-11β-[4-(hydroxyacetyl)phenyl]-19-nor-17α-pregna-4,9-dien-3-one]
[1]; 84 days, daily dose about 1 mg to about 50 mg
  bleeding pattern during the treatment phase: amenorrhoea or a greatly reduced bleeding
[1]; 84 days, daily dose about 1 mg to about 50 mg, followed by a progestogen for about 10 to 14 days, cycle repeated once
  bleeding after sequential treatment with the progestogen: menstrual bleeding following administration of the progestogen
[1]; after completion of each treatment cycle
  endometrial biopsies: persistent changes in the endometrium: no persistent changes in the endometrium

## COC[C@]1(OC)CC[C@H]2[C@@H]3CCC4=CC(=O)CCC4=C3[C@@H](c3ccc(/C=N/O)cc3)C[C@@]21C [asoprisnil]
[2]
  endometrial pattern diagnosed: non-physiological secretory effect
  endometrial vessels: thickening of the smooth muscle cell layer surrounding the endometrial vessels

## CC(=O)c1ccc([C@H]2C[C@@]3(C)[C@@H](CC[C@@]3(O)C(F)(F)C(F)(F)F)[C@@H]3CCC4=CC(=O)CCC4=C32)cc1 [lonaprisan, 11β-(4-acetylphenyl)-20,20,21,21,21-pentafluoro-17-hydroxy-19-nor-17α-pregna-4,9-dien-3-one]
[3]; [4]
  bleeding pattern: amenorrhoea or a greatly reduced bleeding
  effect on ovulation: inhibition of ovulation
[3]; after discontinuation of lonaprisan
  menstrual bleeding after discontinuation: spontaneous return of menstrual bleeding
[3]; after the first menstrual bleeding after completion of the treatment phase
  endometrial biopsies: persistent changes in the endometrium: no persistent changes in the endometrium
